System: vancomycin resistant E. faecium (VRE) (ATCC 51559)
Experiment: Antibacterial activity (MIC), modified micro-dilution broth
Format: cell-based, Vancomycin resistant Enterococcus faecium
Settings: 24 h, read-out: MIC VRE
Experimental: E. coli is cultured in Luria Bertani broth (10 g of tryptone, 5 g of yeast extract, and 10 g of NaCl in 1000 mL of sterile distilled water (pH −7) while S. aureus, P. aeruginosa and MRSA are grown in Yeast-dextrose broth (1 g of beef extract, 2 g of yeast extract, 5 g of peptone and 5 g of NaCl in 1000 mL of sterile distilled water). For E. faecium and VRE, Brain Heart Infusion broth (BHI) is used. K. pneumoniae is grown in nutrient media (3 g of beef extract and 5 g of peptone in 1000 mL of sterile distilled water). For solid media 5% agar is used along with above mentioned composition. The bacterial samples are freeze dried and stored at −80° C. 5 μl of these stocks are added to 3 mL of the nutrient broth and the culture is grown for 6 h at 37° C. prior to the experiments.
Antibacterial activity is determined with the slight modifications of standardized protocols. Water-soluble Q-PIBMI derivatives are assayed in a modified micro-dilution broth format. […] Bacteria, to be tested, grown for 6 h in the suitable media containing ˜10^9 cfu/mL (determined by spread plating method), which is then diluted to 10^5 cfu/mL using nutrient media. […] MIC value is determined by taking the average of triplicate O.D. values for each concentration and plotting it against concentration using Origin Pro 8.0 software. […]

Q: For `CN[C@H](CC(C)C)C(=O)N[C@H]1C(=O)N[C@@H](CC(N)=O)C(=O)N[C@H]2C(=O)N[C@H]3C(=O)N[C@H](C(=O)N[C@H](C(=O)O)c4cc(O)cc(O)c4-c4cc3ccc4O)[C@H](O)c3ccc(c(Cl)c3)Oc3cc2cc(c3O[C@@H]2O[C@H](CO)[C@@H](O)[C@H](O)[C@H]2O[C@H]2C[C@](C)(N)[C@H](O)[C@H](C)O2)Oc2ccc(cc2Cl)[C@H]1O` [Vamcomycin], which MIC is on record?
A: > 156 µg/mL
